Patent publication US7595313B2, “Nitric oxide donating diuretic compounds, compositions and methods of use” (NicOx, S.A., priority 2005, dated 2009)
Counter-ions that a name gives are not always drawn.

Tested on: not given
Experiment: not given
Details: not given

SMILES | melting point
Cc1c(C2Nc3cc(C(F)(F)F)c(S(N)(=O)=O)cc3S(=O)(=O)N2)no[n+]1[O-] (stereo not drawn) (as salt: HCl) [Example 10, 2H-1,2,4-Benzothiadiazine-7-sulfonamide, 3,4-dihydro-3-(4-methyl-5-oxido-1,2,5-oxadiazol-3-yl)-6-(trifluoromethyl)-, 1,1-dioxide] | 160 °C
NS(=O)(=O)c1cc2c(cc1Cl)NCN(CC1CO1)S2(=O)=O (stereo not drawn) [Example 81, 2H-1,2,4-benzothiadiazine-7-sulfonamide, 6-chloro-3,4-dihydro-2-(oxiranylmethyl)-, 1,1-dioxide] | 192 to 197 °C
NS(=O)(=O)c1cc2c(cc1Cl)NC(CCc1cc(CO)cc(CO)c1)NS2(=O)=O (stereo not drawn) [Example 79d, 2H-1,2,4-Benzothiadiazine-7-sulfonamide, 3-[2-[3,5-bis(hydroxymethyl)phenyl]ethyl]-6-chloro-3,4-dihydro-, 1,1-dioxide] | 218 °C
NS(=O)(=O)c1cc2c(cc1Cl)NCN(Cc1cc(CO[N+](=O)[O-])cc(OCCCCBr)c1)S2(=O)=O [Example 68d, 2H-1,2,4-Benzothiadiazine-7-sulfonamide, 2-[[3-(4-bromobutoxy)-5[(nitrooxy)methyl]phenyl]methyl]-6-chloro-3,4-dihydro-, 1,1-dioxide] | 80 °C
NS(=O)(=O)c1cc2c(cc1C(F)(F)F)NC(CCCCCO)NS2(=O)=O (stereo not drawn) [Example 25b, 2H-1,2,4-Benzothiadiazine-7-sulfonamide, 3,4-dihydro-3-(5-hydroxypentyl)-6-(trifluoromethyl)-, 1,1-dioxide] | 97 °C

Next, values leading:

melting point | SMILES
161 °C | NS(=O)(=O)c1cc2c(cc1Cl)NC(CCCCCCO[N+](=O)[O-])NS2(=O)=O (stereo not drawn) [Example 47c, 2H-1,2,4-Benzothiadiazine-7-sulfonamide, 6-chloro-3,4-dihydro-3-[6-(nitrooxy)hexyl]-, 1,1-dioxide]
148 to 151 °C (dec.) | NS(=O)(=O)c1cc2c(cc1Cl)NCN(CCCO[N+](=O)[O-])S2(=O)=O [Example 35b, 2H-1,2,4-Benzothiadiazine-7-sulfonamide, 6-chloro-3,4-dihydro-2-[3-(nitrooxy)propyl]-, 1,1-dioxide]
190 °C | NS(=O)(=O)c1cc2c(cc1Cl)NC(CCCCCO)NS2(=O)=O (stereo not drawn) [Example 24c, 2H-1,2,4-Benzothiadiazine-7-sulfonamide, 6-chloro-3,4-dihydro-3-(5-hydroxypentyl)-, 1,1-dioxide]
177 to 179 °C | NS(=O)(=O)c1cc2c(cc1Cl)N=C(NC(=O)CCCCCO[N+](=O)[O-])NS2(=O)=O (as salt: hydrochloride) [Example 5b, Hexanamide, N-[7-(aminosulfonyl)-6-chloro-1,1-dioxido-2H-1,2,4-benzothiadiazin-3-yl]-6-(nitrooxy)-]
> 260 °C | NS(=O)(=O)c1cc2c(cc1Cl)NC(Cc1ccc(CO[N+](=O)[O-])cc1)=NS2(=O)=O [Example 29d, 4H-1,2,4-Benzothiadiazine-7-sulfonamide, 6-chloro-3-[[4-[(nitrooxy)methyl]phenyl]methyl]-, 1,1-dioxide]
171 to 177 °C | NS(=O)(=O)c1cc2c(cc1C(F)(F)F)NC(CCCCO[N+](=O)[O-])NS2(=O)=O (stereo not drawn) [Example 61b, 2H-1,2,4-Benzothiadiazine-7-sulfonamide, 3,4-dihydro-3-[4-(nitrooxy)butyl]-6-(trifluoromethyl)-, 1,1-dioxide]
155 °C (dec.) | NS(=O)(=O)c1cc2c(cc1Cl)NC1(CCN(C(=O)CCCCO[N+](=O)[O-])CC1)NS2(=O)=O [Example 18b, Spiro[2H-1,2,4-benzothiadiazine-3(4H), 4′-piperidine]-7-sulfonamide, 6-chloro-1′-[5-(nitrooxy)-1-oxopentyl]-, 1,1-dioxide]
183 to 185 °C (dec.) | CN(CC1Nc2cc(Cl)c(S(N)(=O)=O)cc2S(=O)(=O)N1)C(=O)CN(CCO[N+](=O)[O-])CCO[N+](=O)[O-] (stereo not drawn)
113 to 117 °C | NS(=O)(=O)c1cc2c(cc1Cl)NC(CCO[N+](=O)[O-])NS2(=O)=O (stereo not drawn) [Example 74b, 2H-1,2,4-Benzothiadiazine-7-sulfonamide, 6-chloro-3,4-dihydro-3-[2-(nitrooxy)ethyl]-, 1,1-dioxide]
75 to 77 °C | NS(=O)(=O)c1cc2c(cc1Cl)NCN(CCCCO[N+](=O)[O-])S2(=O)=O (as salt: potassium) [Example 40b, 2H-1,2,4-Benzothiadiazine-7-sulfonamide, 6-chloro-3,4-dihydro-2-[4-(nitrooxy)butyl]-, 1,1-dioxide]
177 to 179 °C | NS(=O)(=O)c1cc2c(cc1Cl)NCN(CCCCCO)S2(=O)=O [Example 60, 2H-1,2,4-Benzothiadiazine-7-sulfonamide, 6-chloro-3,4-dihydro-2-(5-hydroxypentyl)-, 1,1-dioxide]
178 °C (dec.) | NS(=O)(=O)c1cc2c(cc1C(F)(F)F)NC1(CCN(C(=O)CCCCO[N+](=O)[O-])CC1)NS2(=O)=O [Example 12c, Spiro[2H-1,2,4-benzothiadiazine-3(4H), 4′-piperidine]-7-sulfonamide, 1′-[5-(nitrooxy)-1-oxopentyl]-6-(trifluoromethyl)-, 1,1-dioxide]
176 to 179 °C | NS(=O)(=O)c1cc2c(cc1Cl)NCN(CCCCCCO)S2(=O)=O [Example 66, 2H-1,2,4-Benzothiadiazine-7-sulfonamide, 6-chloro-3,4-dihydro-2-(6-hydroxyhexyl)-, 1,1-dioxide]

Tested on: Male Wistar rats
Experiment: Determination of the diuresis (urine volume over 6 hours after oral dosing)
Format: in vivo, rat
Details: p.o. 3 mg/kg in 0.5% Methocel, male Wistar rats, 6 hours, mean ± SEM, n=6 or 7
Protocol: Procedures were approved by the Institutional Animal Care and Use Committee of NitroMed, Inc. Male Wistar rats (180-200 g) were purchased from Charles River Laboratories (Kingston, N.Y. or Raleigh, N.C.) and allowed to acclimate in the facility for a period of at least 72 h. Rats were randomly housed 2-3 per cage in a light-controlled room with a 12 hour light/dark cycle and allowed ad libitum access to food and water.
Prior to the experiment, each rat was placed in a metabolic cage and allowed to acclimate for a period of 24-48 hours with food and water ad libitum. During this acclimation period, rats received mash food instead of pellet food to prevent contamination of the urine samples. All rats were fasted for 18 hours prior to experimentation. In addition, water was removed 90 minutes prior to oral dosing with test compound or vehicle.
The test compounds were prepared immediately prior to dosing in 0.5% Methocel (F4M Premium Hydroxypropyl Methylcellulose, lot # PF12012N12; Dow Chemical Company, USA) and homogenized with a glass/Teflon pestle motorized homogenizer. Gently vortexed test compounds were administered intragastrically (p.o.; 30 mg/kg or 3 mg/kg) at a dose volume of 3 ml per rat using an 18 gauge gavage needle. Urine volume (ml) was monitored and urine was collected for subsequent electrolyte analysis over a 6 hours period. […] Data are expressed as mean ±SEM; n=6 or 7.

SMILES | Urine collected in 6 hours (mL) (3 mg/kg)
NS(=O)(=O)c1cc2c(cc1Cl)NC(CCCCCCO[N+](=O)[O-])NS2(=O)=O (stereo not drawn) [Example 47c, 2H-1,2,4-Benzothiadiazine-7-sulfonamide, 6-chloro-3,4-dihydro-3-[6-(nitrooxy)hexyl]-, 1,1-dioxide] | 8.3 ± 0.6
NS(=O)(=O)c1cc2c(cc1Cl)NC(CCCCCO)NS2(=O)=O (stereo not drawn) [Example 24c, 2H-1,2,4-Benzothiadiazine-7-sulfonamide, 6-chloro-3,4-dihydro-3-(5-hydroxypentyl)-, 1,1-dioxide] | 8.6 ± 0.4
NC1=Nc2cc(Cl)c(S(N)(=O)=O)cc2S(=O)(=O)N1 [Example 4b, 2H-1,2,4-Benzothiadiazine-7-sulfonamide, 3-amino-6-chloro-, 1,1-dioxide] | 4.0 ± 0.5
NS(=O)(=O)c1cc2c(cc1Cl)NCN(CCOC(=O)CCCCO[N+](=O)[O-])S2(=O)=O [Example 44, Pentanoic acid, 5-(nitrooxy)-, 2-[7-(aminosulfonyl)-6-chloro-3,4-dihydro-1,1-dioxido-2H-1,2,4-benzothiadiazin-2-yl]ethyl ester] | 2.5 ± 0.3
NS(=O)(=O)c1cc2c(cc1Cl)NCN(CCCOc1cc(CO)cc(CO)c1)S2(=O)=O [Example 70b, 2H-1,2,4-Benzothiadiazine-7-sulfonamide, 2-[3-[3,5-bis(hydroxymethyl)phenoxy]propyl]-6-chloro-3,4-dihydro-, 1,1-dioxide] | 2.8 ± 0.7

Same assay, conditions: p.o. 30 mg/kg in 0.5% Methocel, male Wistar rats, 6 hours, mean ± SEM, n=6 or 7

SMILES | Urine collected in 6 hours (mL) (30 mg/kg)
NS(=O)(=O)c1cc2c(cc1Cl)NC(CCCCCO)NS2(=O)=O (stereo not drawn) [Example 24c, 2H-1,2,4-Benzothiadiazine-7-sulfonamide, 6-chloro-3,4-dihydro-3-(5-hydroxypentyl)-, 1,1-dioxide] | 7.2 ± 0.7
NS(=O)(=O)c1cc2c(cc1C(F)(F)F)NC1(CCN(C(=O)c3cccc(CO[N+](=O)[O-])c3)CC1)NS2(=O)=O [Example 15b, Spiro[2H-1,2,4-benzothiadiazine-3(4H), 4′-piperidine]-7-sulfonamide, 1′-[3-[(nitrooxy)methyl]benzoyl]-6-(trifluoromethyl)-, 1,1-dioxide] | 4.5 ± 0.2
NS(=O)(=O)c1cc2c(cc1Cl)N=C(NC(=O)CCCCCO[N+](=O)[O-])NS2(=O)=O [Example 5b, Hexanamide, N-[7-(aminosulfonyl)-6-chloro-1,1-dioxido-2H-1,2,4-benzothiadiazin-3-yl]-6-(nitrooxy)-] | 4.5 ± 0.5
Cc1c(C2Nc3cc(C(F)(F)F)c(S(N)(=O)=O)cc3S(=O)(=O)N2)no[n+]1[O-] (stereo not drawn) [Example 10, 2H-1,2,4-Benzothiadiazine-7-sulfonamide, 3,4-dihydro-3-(4-methyl-5-oxido-1,2,5-oxadiazol-3-yl)-6-(trifluoromethyl)-, 1,1-dioxide] | 6.9 ± 0.9
NS(=O)(=O)c1cc2c(cc1Cl)N[C@@H](CCCCO[N+](=O)[O-])NS2(=O)=O (single isomer, unassigned) [17c (enantiomer 1)] | 7.0 ± 0.6
NS(=O)(=O)c1cc2c(cc1Cl)N[C@H](CCCCO[N+](=O)[O-])NS2(=O)=O (single isomer, unassigned) [17c (enantiomer 2)] | 7.8 ± 0.5

Same assay, conditions: rat, in vivo, po

SMILES | Urine collected in 6 hours (mL) (3 mg/kg)
NS(=O)(=O)c1cc2c(cc1Cl)NCN(CC(=O)OC[C@H](CO[N+](=O)[O-])O[N+](=O)[O-])S2(=O)=O [Example 31b, 2H-1,2,4-Benzothiadiazine-2-acetic acid, 7-(aminosulfonyl)-6-chloro-3,4-dihydro-, (2R)-2,3-bis(nitrooxy)propyl ester, 1,1-dioxide] | 2.0 ± 0.3
NS(=O)(=O)c1cc2c(cc1Cl)NCN(CCOC(=O)CCC(CO[N+](=O)[O-])O[N+](=O)[O-])S2(=O)=O (stereo not drawn) [Example 42, Pentanoic acid, 4,5-bis(nitrooxy)-, 2-[7-(aminosulfonyl)-6-chloro-3,4-dihydro-1,1-dioxido-2H-1,2,4-benzothiadiazin-2-yl]ethyl ester] | 6.2 ± 0.3
NS(=O)(=O)c1cc2c(cc1Cl)NCN(C[C@H](CO[N+](=O)[O-])O[N+](=O)[O-])S2(=O)=O (single isomer, unassigned) [75d (enantiomer 1)] | 5.3 ± 0.3
NS(=O)(=O)c1cc2c(cc1Cl)NCN(C[C@@H](CO[N+](=O)[O-])O[N+](=O)[O-])S2(=O)=O (single isomer, unassigned) [75d (enantiomer 2)] | 5.5 ± 0.4
